# Test system: testosterone 5α-reductase
# Test: Testosterone 5α-reductase micro radioassay (crude nuclear fraction of ventral prostate)
# Type: biochemical
# Conditions: 0.1 mg/ml 17-alpha-estradiol, with or without 20 μg/ml UL-OHA; 37° C., 1 hour
# Experimental: The effect of UL-OHA on inhibiting increase in testosterone 5α-reductase activity can be verified with a micro radioassay.
# Biopsies of ventral prostate homogenized with 9 volumes of 0.1 M PBS are filtered through gauze and centrifuged at 3000 rpm for 10 minutes to obtain a crude nuclear fraction. The supernatant is discarded and the pellet resuspended in PBS. This process is repeated once again and the second suspension is used as enzyme solution for the assay.
# 1 mCi of [4-^14C] testosterone with 17-alpha-estradiol+UL-OHA (calculated for a final conc. of 0.1 mg/ml and 20 μg/ml respectively) and 17-alpha-estradiol (final conc. 0.1 mg/ml) are placed in test tubes and heated to dryness under nitrogen flow. 10 μl of 50 mM NADPH, 60 μl of PBS and 30 μl of testosterone 5α-reductase solution are added and the test tubes and incubated at 37° C. for 1 hour. Finally 0.4 ml of chloroform:methanol (1:2 v/v) are added in order to terminate the reaction and the mixture is centrifuged at 3000 rpm for 10 minutes. […]
# The radioactive activity of each extract based on the resulting quantity of testosterone, 5α-dihydro-testosterone, 5α-androstan-3α,17β-diol and 5α-androstan-3β,17β-diol is measured by reading the intensity of isotope emission from the plates as described by Hamada K et al. (IFSCC Magazine 4(2):83-87, 2001). […]
structure (smiles),measurement,value
C[C@]12CC[C@@H]3c4ccc(O)cc4CC[C@H]3[C@@H]1CC[C@H]2O [17-alpha-estradiol],Percentage inhibition of testosterone conversion relative to the control (anti-androgenic activity),20%

# Source: patent publication US20080051351A1, “Substances, Compositions, and Methods for Treating Alopecia” (priority 2005, published 2008)
